Measured values as given in the supplement of paper PMC4976141.
± gives the uncertainty stated by the source.

Key:
PC9 = experiment: cell count fold change with erlotinib, miRNA mimic vs non-targeting control (log2 ratio); higher = more drug-tolerant survivors than NTC; details: erlotinib 1 µM; 72 h drug + 72 h drug-free recovery; perturbation: miRNA mimic
NCI-H596 [1] = experiment: % viability in DMSO, miRNA mimic relative to NTC in DMSO; higher = less cytotoxic; details: drug used in drug arm: paclitaxel 6 uM; treatment: DMSO
Protocol: (§1)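 26 miRNA mimics were transfected into 8 cancer cell lines in triplicate. 48 h post-transfection, cells were treated 72 h with DMSO or a line-specific drug, then recovered 72 h drug-free. Drugs: COLO-205 AZ628 1 uM, MKN-45 crizotinib 1 uM, NCI-H596 paclitaxel 6 uM, EVSA-T GDC-0980 2.5 uM, M14 AZ628 1 uM, HCC-1954 GDC-0980 2.5 uM, NCI-H441 carboplatin 2.5 uM, SKBr3 lapatinib 1 uM. Surviving cells are expressed as % of NTC-transfected cells in DMSO (the NTC drug arm itself is about 30-50%), mean +- SEM.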

EVSA-T [2] = experiment: as above; details: drug used in drug arm: GDC-0980 2.5 uM; treatment: DMSO
Protocol: as §1

NCI-H441 [3] = experiment: as above; details: drug used in drug arm: carboplatin 2.5 uM; treatment: DMSO
Protocol: as §1

SK-BR-3 [4] = experiment: as above; details: drug used in drug arm: lapatinib 1 uM; treatment: DMSO
Protocol: as §1

COLO-205 [5] = experiment: as above; details: drug used in drug arm: AZ628 1 uM; treatment: DMSO
Protocol: as §1

HCC-1954 [6] = experiment: as above; details: drug used in drug arm: GDC-0980 2.5 uM; treatment: DMSO
Protocol: as §1

M14 [7] = experiment: as above; details: drug used in drug arm: AZ628 1 uM; treatment: DMSO
Protocol: as §1

MKN-45 [8] = experiment: as above; details: drug used in drug arm: crizotinib 1 uM; treatment: DMSO
Protocol: as §1

NCI-H596 [9] = experiment: % viability under drug (72 h drug + 72 h recovery), miRNA mimic relative to NTC in DMSO; higher = more surviving cells; details: drug used in drug arm: paclitaxel 6 uM; treatment: drug
Protocol: as §1

EVSA-T [10] = experiment: as above; details: drug used in drug arm: GDC-0980 2.5 uM; treatment: drug
Protocol: as §1

NCI-H441 [11] = experiment: as above; details: drug used in drug arm: carboplatin 2.5 uM; treatment: drug
Protocol: as §1

SK-BR-3 [12] = experiment: as above; details: drug used in drug arm: lapatinib 1 uM; treatment: drug
Protocol: as §1

COLO-205 [13] = experiment: as above; details: drug used in drug arm: AZ628 1 uM; treatment: drug
Protocol: as §1

HCC-1954 [14] = experiment: as above; details: drug used in drug arm: GDC-0980 2.5 uM; treatment: drug
Protocol: as §1

M14 [15] = experiment: as above; details: drug used in drug arm: AZ628 1 uM; treatment: drug
Protocol: as §1

MKN-45 [16] = experiment: as above; details: drug used in drug arm: crizotinib 1 uM; treatment: drug
Protocol: as §1

Sequence | cell count fold change with erlotinib (PC9) | % viability in DMSO (NCI-H596 [1]) [%] | % viability in DMSO (EVSA-T [2]) [%] | % viability in DMSO (NCI-H441 [3]) [%] | % viability in DMSO (SK-BR-3 [4]) [%] | % viability in DMSO (COLO-205 [5]) [%] | % viability in DMSO (HCC-1954 [6]) [%] | % viability in DMSO (M14 [7]) [%] | % viability in DMSO (MKN-45 [8]) [%] | % viability under drug (NCI-H596 [9]) [%] | % viability under drug (EVSA-T [10]) [%] | % viability under drug (NCI-H441 [11]) [%] | % viability under drug (SK-BR-3 [12]) [%] | % viability under drug (COLO-205 [13]) [%] | % viability under drug (HCC-1954 [14]) [%] | % viability under drug (M14 [15]) [%] | % viability under drug (MKN-45 [16]) [%]
AAAAGUAAUUGCGGAUUUUGCC | 0.467 | 95.4 ± 3.6 | 85.7 ± 0.94 | 182 ± 14 | 73.43 ± 0.24 | 101 ± 4.2 | 117 ± 9.9 | 119 ± 24 | 136 ± 19 | 1.3 ± 0.04 | 0.608 ± 0.1 | 29.7 ± 2.4 | 45.73 ± 0.37 | 42.6 ± 1 | 3.99 ± 0.13 | 18 ± 0.42 | 4.35 ± 0.71
AAAAGUAAUUGUGGUUUUUGCC | 0.561 | 98.8 ± 8.3 | 71.9 ± 2.7 | 106 ± 7.8 | 80.3 ± 4.8 | 95 ± 6.9 | 110 ± 9.3 | 85.4 ± 3.8 | 156 ± 2.2 | 0.738 ± 0.0075 | 0.3585 ± 0.0025 | 24.2 ± 3.6 | 39.2 ± 11 | 46.4 ± 1.6 | 2.67 ± 0.17 | 21.9 ± 1.3 | 4.45 ± 0.12
AAAAGUACUUGCGGAUUUUGCU | -3.1 | 89.1 ± 8.1 | 64.63 ± 0.49 | 67.7 ± 7.8 | 161 ± 7.2 | 101 ± 4.5 | 100 ± 4.8 | 99.3 ± 19 | 142 ± 17 | 2.53 ± 0.066 | 1.66 ± 0.013 | 11.3 ± 2.9 | 49.8 ± 2.7 | 49.9 ± 1.1 | 4.02 ± 0.49 | 22.8 ± 0.71 | 4.2 ± 0.41
AACGCCAUUAUCACACUAAAUA | 0.733 | 62.43 ± 0.46 | 23.6 ± 3.1 | 13.2 ± 1.1 | 22.3 ± 5.5 | 106 ± 2 | 81.2 ± 2.9 | 73.5 ± 3.2 | 27.1 ± 3.8 | 0.97 ± 0.026 | 0.459 ± 0.079 | 10.2 ± 2.8 | 11.5 ± 1.4 | 43 ± 1.6 | 2.25 ± 0.44 | 12.8 ± 0.75 | 1.35 ± 0.4
AAGUGCCGCCAUCUUUUGAGUGU | -4.45 | 37.5 ± 5.6 | 12.3 ± 1.3 | 13.71 ± 0.039 | 22.2 ± 6.5 | 100.8 ± 0.28 | 11.8 ± 0.37 | 15.7 ± 1.4 | 35.27 ± 0.22 | 0.265 ± 0.011 | 0.157 | 7.71 ± 2.4 | 8.32 ± 0.77 | 30.8 ± 0.9 | 0.919 ± 0.19 | 1.98 ± 0.13 | 0.444 ± 0.042
ACAGUAGAGGGAGGAAUCGCAG | -3.56 | 65.6 ± 2.4 | 25.6 ± 1.8 | 34.6 ± 18 | 67.8 ± 13 | 94 ± 5.5 | 64.5 ± 2.5 | 20 ± 3.4 | 31.6 ± 9.1 | 0.53 ± 0.13 | 0.124 ± 0.035 | 38.6 ± 6.2 | 25.7 ± 0.71 | 37.6 ± 4.1 | 1.37 ± 0.43 | 4.04 ± 0.76 | 0.428 ± 0.005
AGUUAAUGAAUCCUGGAAAGU | -4.81 | 25.4 ± 6.1 | 26.1 ± 11 | 61.6 ± 15 | 33.3 ± 1.6 | 101.6 ± 0.44 | 48.3 ± 2 | 55.5 ± 2.1 | 40.6 ± 10 | 0.869 ± 0.086 | 0.344 ± 0.059 | 14.3 ± 0.47 | 19.2 ± 4 | 43.4 ± 1.2 | 1.99 ± 0.45 | 9.17 ± 1.3 | 1.55 ± 0.042
CAAAAGUAAUUGUGGAUUUUGU | -2.88 | 73.6 ± 2.9 | 39.3 ± 3.4 | 62.3 ± 2.6 | 46.3 ± 3.1 | 106 ± 1.7 | 88.3 ± 15 | 62.9 ± 9 | 40.7 ± 3.5 | 0.808 ± 0.028 | 0.243 ± 0.018 | 13.6 ± 2 | 20.2 ± 1.6 | 44.6 ± 3.2 | 1.55 ± 0.17 | 14.1 ± 0.89 | 1.49 ± 0.11
CAAUGUUUCCACAGUGCAUCAC | -2.66 | 15.2 ± 1.5 | 2.27 ± 1.2 | 2.78 ± 0.14 | 16.8 ± 1.4 | 98.6 ± 2 | 7.62 ± 0.18 | 42.7 ± 9 | 2.31 ± 0.74 | 0.731 ± 0.068 | 0.155 ± 0.049 | 4.19 ± 0.47 | 9.29 ± 0.1 | 29.2 ± 4.1 | 1.26 ± 0.032 | 5.66 ± 1.1 | 0.794 ± 0.25
GAAUGUUGCUCGGUGAACCCCU | -3.27 | 7.07 ± 2.1 | 0.953 ± 0.055 | 7.26 ± 0.039 | 12.4 ± 5.7 | 102 ± 1.1 | 10.8 ± 1.4 | 17.3 ± 2.9 | 8.61 ± 2.6 | 0.932 ± 0.015 | 0.08 ± 0.004 | 4.29 ± 0.14 | 10.1 ± 0.42 | 36.6 ± 1.2 | 0.831 ± 0.092 | 3.18 ± 0.17 | 0.355 ± 0.046
GAGCCAGUUGGACAGGAGC | -4.82 | 66.947 ± 0.021 | 28.9 ± 1 | 60.7 ± 17 | 178 ± 130 | 101 ± 6.3 | 34 ± 6.2 | 97.9 ± 14 | 70.7 ± 8 | 0.418 ± 0.032 | 0.0905 ± 0.0095 | 18.1 ± 1.8 | 48.1 ± 28 | 38.9 ± 1 | 0.433 ± 0.085 | 6.67 ± 1.9 | 1.7 ± 0.21
GCGAGGACCCCUCGGGGUCUGAC | 0.35 | 76.8 ± 10 | 40.8 ± 0.66 | 21.6 ± 1.6 | 48.4 ± 5 | 105.2 ± 0.58 | 56.4 ± 10 | 43.3 ± 5.2 | 53.2 ± 7 | 3.656 ± 0.036 | 1.21 ± 0.28 | 7.07 ± 0.39 | 16.6 ± 6.8 | 43 ± 1.1 | 2.54 ± 0.19 | 8.07 ± 0.6 | 1.84 ± 0.18
